Data taken from patent US8809270B2, “Method for reducing cardiovascular morbidity and mortality in prediaetic patients and patients with type 2 diabetes” (priority 2003, dated 2014).
“Also recorded” adds a separate entry of the source.

Legend:
[1] = tested on: type 2 diabetic population inadequately treated with oral drugs; assay: Treat-to-Target study (HOE901/4002): lipid data; type: in vivo, human; set-up: Triglycerides % reduction from baseline / Triglycerides % reduction from baseline, LANTUS-AMARYL / Non-HDL Cholesterol Total % reduction from baseline / Non-HDL Cholesterol Total % reduction from baseline, LANTUS-AMARYL: concentration or dose not given beside the values; Triglycerides Baseline / Triglycerides Endpoint: unit not given beside the values; conditions: for Non-HDL Cholesterol Total % reduction from baseline, LANTUS-AMARYL / Non-HDL Cholesterol Total change at endpoint, LANTUS-AMARYL / Triglycerides % reduction from baseline, LANTUS-AMARYL / Triglycerides change at endpoint, LANTUS-AMARYL: LANTUS (4002 Study) minus AMARYL (two AMARYL studies)
From the text: As a consequence of the excellent glycemic control attained, which set the standard for glycemic control in future trials, the 4002 study results are especially useful as an assessment of Lantus's LANTUS (insulin glargine) effects on lipids.

[2] = tested on: US/Canada type 2 diabetic patients; assay: Treat-to-Target study: hypoglycemia, bedtime LANTUS vs. NPH insulin; type: in vivo, human; conditions: single bedtime dose
Experimental: The ideal basal insulin might be expected to be less worrisome from this standpoint because the circulating insulin produced would target blood glucose elevations throughout the day rather than mealtime fluctuations. […] The “Treat-to-Target” study ^38 in US/Canada type 2 diabetic patients investigated whether a single bedtime dose of Lantus® LANTUS (insulin glargine) vs. NPH insulin (a moderate- to long-acting insulin with a pronounced peak in plasma activity for 4 to 8 hours after injection)^39 would achieve target metabolic control without increasing nocturnal hypoglycemia.
Insulin has features that make it especially useful in the patient with pronounced diabetic dyslipidemia, as compared to the oral antidiabetic agents usually used as initial pharmacotherapy. […] NPH insulin despite having a prolonged duration of action, has a pronounced peak effect from 3-6 hours after injection, rendering it less suitable in the management of the patient with milder diabetes due to the risk for hypoglycemia.

[3] = Post-marketing surveillance safety database; set-up: species or system human
From the text: Treatment with Lantus® LANTUS (insulin glargine) insulin offers the possibility of a smooth, daylong, blood insulin profile without a definite peak that can be finely titrated to lower subjects' FPG in a durable manner, while minimizing the risk of hypoglycemia at other times of day.

[4] = tested on: people with impaired glucose tolerance (IGT) or impaired fasting glucose (IFG), mild type 2 diabetes; assay: Study HOE901/1021: fasting and 8-point blood glucose profiles, bedtime dose titration; type: in vivo, human
From the text: Study HOE901/1021 was a randomized, single-blind (pharmacist-unblinded), inpatient, dose-titration study designed to examine the safety and efficacy of HOE901 given once a day subcutaneously at bedtime in a novel population: people with impaired glucose tolerance (IGT) or impaired fasting glucose (IFG). It was conceived as a pilot study for a large international trial of HOE901 in a dysglycemic population of IGT, IFG, and early type 2 diabetes in order to investigate dosing in the prediabetic (IFG/IGT) population for the first time. Of special interest was the incidence of hypoglycemia during the study.
The study was conducted at three centers in the US. After screening tests, including fasting plasma glucose (FPG) and post prandial plasma glucose (PPG; two hours following a 75 g oral glucose load) for classification as IGT, IFG, diabetic, or normal glucose tolerance (NGT), and after satisfying other inclusion criteria including the ability to perform moderate exercise on a stationary bicycle, subjects were admitted to an inpatient study center. They were confined there for the next 15 days, during which time they were randomly assigned to receive either HOE901 once per day subcutaneously in the evening, or matching placebo (saline) injections in a 3:1 randomization (HOE901:placebo). Baseline assessments included a 5-point (before each meal, bedtime, and 3 AM) and 8-point (5-point plus readings 2 hours after each meal) blood glucose profile on separate days, and 15 minutes of exercise on a stationary bicycle at a level of exertion of “somewhat hard” on the Borg scale with blood glucose values monitored during and for 3 hours following the exercise. Each subject received a 25 kCal/kg diet while confined in the study center. Capillary whole blood glucose values were recorded on HemoCue devices. Episodes of hypoglycemia (blood glucose 50 mg/dL [2.8 mM] or symptoms with blood glucose 65 mg/dL [3.6 mM]) were recorded.
Once randomized, subjects' bedtime doses of study drug were titrated to achieve a fasting blood glucose (FBG) of 80-95 mg/dL [4.4 mM-5.3 mM]. Dose increases were based on FBG values and were performed every 2 days. Subjects remained at the site until the end of the confinement period, regardless of when target FBG levels were achieved. Five-point blood glucose profiles were performed every other day, with 8-point blood glucose profiles performed on alternate days. At endpoint all baseline procedures, including an 8-point blood glucose profile, and an exercise assessment, were repeated.

insulin glargine [LANTUS]
HDL Baseline ([1]; TG baseline range 200-500): 42
HDL Endpoint ([1]; TG baseline range 200-500): 41
Non-HDL Cholesterol Total % reduction from baseline ([1]; TG baseline range 200-500): 7%
Non-HDL Cholesterol Total Baseline ([1]; TG baseline range 200-500): 167
Non-HDL Cholesterol Total Endpoint ([1]; TG baseline range 200-500): 155
Triglycerides % reduction from baseline ([1]; TG baseline range 200-500): 25%
Triglycerides Baseline ([1]; TG baseline range 200-500): 288
Triglycerides Endpoint ([1]; TG baseline range 200-500): 232
Non-HDL Cholesterol Total % reduction from baseline, LANTUS-AMARYL ([1]; TG baseline range 200-500): 4%
Non-HDL Cholesterol Total change at endpoint, LANTUS-AMARYL ([1]; TG baseline range 200-500): 5.8
Triglycerides % reduction from baseline, LANTUS-AMARYL ([1]; TG baseline range 200-500): 13%
Triglycerides change at endpoint, LANTUS-AMARYL ([1]; TG baseline range 200-500): 21.7
HDL Baseline ([1]; TG baseline range 300-500): 40
HDL Endpoint ([1]; TG baseline range 300-500): 40
Non-HDL Cholesterol Total % reduction from baseline ([1]; TG baseline range 300-500): 15%
Non-HDL Cholesterol Total Baseline ([1]; TG baseline range 300-500): 180
Non-HDL Cholesterol Total Endpoint ([1]; TG baseline range 300-500): 152
Triglycerides % reduction from baseline ([1]; TG baseline range 300-500): 34%
Triglycerides Baseline ([1]; TG baseline range 300-500): 362
Triglycerides Endpoint ([1]; TG baseline range 300-500): 240
Non-HDL Cholesterol Total % reduction from baseline, LANTUS-AMARYL ([1]; TG baseline range 300-500): 12%
Non-HDL Cholesterol Total change at endpoint, LANTUS-AMARYL ([1]; TG baseline range 300-500): 21.9
Triglycerides % reduction from baseline, LANTUS-AMARYL ([1]; TG baseline range 300-500): 16%
Triglycerides change at endpoint, LANTUS-AMARYL ([1]; TG baseline range 300-500): 52.5
HDL Baseline ([1]; TG baseline range 300-1000): 37
HDL Endpoint ([1]; TG baseline range 300-1000): 38
Non-HDL Cholesterol Total % reduction from baseline ([1]; TG baseline range 300-1000): 10%
Non-HDL Cholesterol Total Baseline ([1]; TG baseline range 300-1000): 181
Non-HDL Cholesterol Total Endpoint ([1]; TG baseline range 300-1000): 163
Triglycerides % reduction from baseline ([1]; TG baseline range 300-1000): 36%
Triglycerides Baseline ([1]; TG baseline range 300-1000): 470
Triglycerides Endpoint ([1]; TG baseline range 300-1000): 301
Non-HDL Cholesterol Total % reduction from baseline, LANTUS-AMARYL ([1]; TG baseline range 300-1000): 5%
Non-HDL Cholesterol Total change at endpoint, LANTUS-AMARYL ([1]; TG baseline range 300-1000): 8.6
Triglycerides % reduction from baseline, LANTUS-AMARYL ([1]; TG baseline range 300-1000): 13%
Triglycerides change at endpoint, LANTUS-AMARYL ([1]; TG baseline range 300-1000): 63.6
HDL Baseline ([1]; TG baseline range 500-1000): 33
HDL Endpoint ([1]; TG baseline range 500-1000): 36
Non-HDL Cholesterol Total % reduction from baseline ([1]; TG baseline range 500-1000): 8%
Non-HDL Cholesterol Total Baseline ([1]; TG baseline range 500-1000): 186
Non-HDL Cholesterol Total Endpoint ([1]; TG baseline range 500-1000): 171
Triglycerides % reduction from baseline ([1]; TG baseline range 500-1000): 38%
Triglycerides Baseline ([1]; TG baseline range 500-1000): 661
Triglycerides Endpoint ([1]; TG baseline range 500-1000): 409
Non-HDL Cholesterol Total % reduction from baseline, LANTUS-AMARYL ([1]; TG baseline range 500-1000): −2%
Non-HDL Cholesterol Total change at endpoint, LANTUS-AMARYL ([1]; TG baseline range 500-1000): −9.0
Triglycerides % reduction from baseline, LANTUS-AMARYL ([1]; TG baseline range 500-1000): 5%
Triglycerides change at endpoint, LANTUS-AMARYL ([1]; TG baseline range 500-1000): 34.4
LDL Baseline ([1]; TG baseline range All): 113
LDL Endpoint ([1]; TG baseline range All): 110
reduction in fasting TG levels ([1]; all patients): 24%
reduction in fasting TG levels ([1]; elevations of 500 mg/dL or more): 38%
reduction in fasting TG levels ([1]; fasting TG in the 300-499 mg/dL range): 34%
hypoglycemia vs. NPH [2]: significant reductions in nocturnal hypoglycemia; also recorded: significant advantages over NPH in hypoglycemia
incidence of hypoglycemia or unexpected adverse reactions compared to other marketed insulin preparations [3]: no increased incidence of hypoglycemia or unexpected adverse reactions
Mean FBG ([4]; Day 12 (endpoint)): 85.6 mg/dL
Mean FBG ([4]; Day −1 (baseline)): 98.1 mg/dL
reduction in mean daylong blood glucose ([4]; Day −1 to Day 12): 8.8 mg/dL
subjects who had reached an FPG of 100 mg/dL ([4]; by Day 12): All but 2
subjects who had reached the FBG target of 95 mg/dL or less ([4]; by Day 12): all but 4
